For data set [1], the target named is T1, VEGF receptor KDR (VEGFR2) (Homo sapiens, UniProt P35968).
T1 construct: made in house; host or cells: Sf9 cells (Spodoptera frugiperda), baculovirus
Description: In vitro receptor tyrosine kinase assay (VEGF receptor KDR), DELFIA. Format: biochemical. The following applies: recombinant GST-VEGFR2 (806-1356), ATP 0.6 uM, enzyme 5 nM; read-out: VEGFR_IC50_UM. An excerpt:
In Vitro Receptor Tyrosine Kinase Assay (VEGF receptor KDR)
This test measures the ability of compounds to inhibit the enzymatic activity of recombinant human VEGF receptor enzymatic activity.
A 1.6-kb cDNA corresponding to the catalytic domain of VEGFR2 (KDR) (Genbank accession number AF035121 amino acid 806 to 1356) is cloned into the Pst I site of the pDEST20 Gateway vector (Invitrogen) for the production of a GST-tagged version of that enzyme. This construct is used to generate recombinant baculovirus using the Bac-to-Bac™ system according to the manufacturer's instructions (Invitrogen).
The GST-VEGFR2806-1356 protein is expressed in Sf9 cells (Spodoptera frugiperda) upon infection with recombinant baculovirus construct. Briefly, Sf9 cells grown in suspension and maintained in serum-free medium (Sf900 II supplemented with gentamycin) at a cell density of about 2×10^6 cells/ml are infected with the above-mentioned viruses at a multiplicity of infection (MOI) of 0.1 during 72 hours at 27° C. with agitation at 120 rpm on a rotary shaker. Infected cells are harvested by centrifugation at 398g for 15 min. Cell pellets are frozen at −80° C. until purification is performed.
All steps described in cell extraction and purification are performed at 4° C. Frozen Sf9 cell pellets infected with the GST-VEGFR2806-1356 recombinant baculovirus are thawed and gently resuspended in Buffer A (PBS pH 7.3 supplemented with 1 μg/ml pepstatin, 2 μg/ml Aprotinin and leupeptin, 50 μg/ml PMSF, 50 μg/ml TLCK and 10 μM E64 and 0.5 mM DTT) using 3 ml of buffer per gram of cells. Suspension is Dounce homogenized and 1% Triton X-100 is added to the homogenate after which it is centrifuged at 22500 g, 30 min., 4 °C. The supernatant (cell extract) is used as starting material for purification of GST-VEGFR2806-1356.
The supernatant is loaded onto a GST-agarose column (Sigma) equilibrated with PBS pH 7.3. Following a four column volume (CV) wash with PBS pH 7.3+1% Triton X-100 and 4 CV wash with buffer B (50mM Tris pH 8.0, 20% glycerol and 100mM NaCl), bound proteins are step eluted with 5 CV of buffer B supplemented with 5 mM DTT and 15 mM glutathion. GST-VEGFR2806-1356 enriched fractions from this chromatography step are pooled based on U.V. trace i.e. fractions with high 0.D.280. Final GST-VEGFR2806-1356 protein preparations concentrations are about 0.7 mg/ml with purity approximating 70%. Purified GST-VEGFR2806-1356 protein stocks are aliquoted and frozen at −80° C. prior to use in enzymatic assay.
Inhibition of VEGFR/KDR is measured in a DELFIATM assay (Perkin Elmer). The substrate poly(Glu4, Tyr) is immobilized onto black high-binding polystyrene 96-well plates. The coated plates are washed and stored at 4° C. During the assay, the enzyme is pre-incubated with inhibitor and Mg-ATP on ice in polypropylene 96-well plates for 4 minutes, and then transferred to the coated plates. The subsequent kinase reaction takes place at 30° C. for 10-30 minutes. ATP concentrations in the assay are 0.6 uM for VEGFR/KDR (2× the Km). Enzyme concentration is 5 nM. After incubation, the kinase reactions are quenched with EDTA and the plates are washed. Phosphorylated product is detected by incubation with Europium-labeled anti-phosphotyrosine MoAb. After washing the plates, bound MoAb is detected by time-resolved fluorescence in a Gemini SpectraMax reader (Molecular Devices). Compounds are evaluated over a range of concentrations, and IC50 values (concentration of compounds giving 50% inhibition of enzymatic activity) are determined.

Data set [2] can be described thus: Solubility measurements in PBS (pH 7.4), filtration, HPLC-UV. The format is physicochemical. The following applies: PBS (pH 7.4) with 1% DMSO, aqueous buffer, kinetic from dmso stock, PBS pH 7.4, 100 μM test substance, room temperature. Here is the method: The solubility of each substance was assessed using MultiScreen® HTS 96-well filtration system (filter; polycarbonate, pore size; 0.4 μm, Millipore). DMSO stock solutions of each test substance (10 mM) were prepared to initiate the assay. The equilibration was performed in PBS (pH 7.4) containing 100 μM of a test substance and 1% DMSO, for 24 hours at room temperature with shaking The concentrations of test substances in each filtrate were determined by HPLC-UV.
HPLC conditions were following:
Waters ACQUITY UPLC H class instrument.
Eluent A: 10 mM aqueous Ammonium formate
Eluent B: 0.1 volume % formic acid in acetonitrile
Flow: 1 mL/min, UV: 316 nm

Drawing on patent US20130096135A1, “Selected Inhibitors of Protein Tyrosine Kinase Activity” (METHYLGENE INC., priority 2011, published 2013), this text covers IC50 and solubility for nine molecules.

In brackets after ≈: the same amount, converted by molar mass.

T1 sequence (P35968 806-1356): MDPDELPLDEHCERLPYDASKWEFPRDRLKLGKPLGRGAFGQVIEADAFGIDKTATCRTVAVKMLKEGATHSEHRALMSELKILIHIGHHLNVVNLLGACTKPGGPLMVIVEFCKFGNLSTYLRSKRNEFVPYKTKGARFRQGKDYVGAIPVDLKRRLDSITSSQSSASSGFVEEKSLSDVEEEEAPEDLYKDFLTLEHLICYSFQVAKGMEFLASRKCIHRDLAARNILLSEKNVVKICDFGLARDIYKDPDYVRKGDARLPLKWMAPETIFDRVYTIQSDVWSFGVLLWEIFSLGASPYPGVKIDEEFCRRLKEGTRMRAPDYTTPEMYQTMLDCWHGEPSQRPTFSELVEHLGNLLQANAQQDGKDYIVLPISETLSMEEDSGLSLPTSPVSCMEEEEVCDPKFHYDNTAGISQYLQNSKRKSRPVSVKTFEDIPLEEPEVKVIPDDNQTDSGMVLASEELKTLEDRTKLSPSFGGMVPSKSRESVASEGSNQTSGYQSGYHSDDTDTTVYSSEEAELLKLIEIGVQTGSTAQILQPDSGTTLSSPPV

Regarding `C[C@H](O)CN1CCN(Cc2ccc(-c3cc4nccc(Oc5ccc(NC(=O)NC6CC6)cc5F)c4s3)nc2)CC1` [Compound 30], the IC50 in data set [1] was found to be 4 nM. The concentration in solution in data set [2] (solubility at 24 h) was 6.46 µM (≈ 3.73 µg/mL).

As to `CC(C)(O)C(=O)N1CCN(Cc2ccc(-c3cc4nccc(Oc5ccc(NC(=O)NC6CC6)cc5F)c4s3)nc2)CC1` [Compound 35-A, 1-Cyclopropyl-3-(3-fluoro-4-(2-(5-((4-(2-hydroxy-2-methylpropanoyl)piperazin-1-yl)methyl)pyridin-2-yl)thieno[3,2-b]pyridin-7-yloxy)phenyl)urea], the IC50 in data set [1] stood at 1 nM. Besides, the concentration in solution in data set [2] (solubility at 24 h) was 1.19 µM (≈ 0.72 µg/mL).

Regarding `COCCOCCOC(=O)N1CCN(Cc2ccc(-c3cc4nccc(Oc5ccc(NC(=O)NC6CC6)cc5F)c4s3)nc2)CC1` [Compound 75, 2-(2-Methoxyethoxy)ethyl 4-((6-(7-(4-(3-cyclopropylureido)-2-fluorophenoxy)thieno[3,2-b]pyridin-2-yl)pyridin-3-yl)methyl)piperazine-1-carboxylate], the IC50 in data set [1] came to 16 nM.

In the case of `COCCOC(=O)N1CCN(Cc2ccc(-c3cc4nccc(Oc5ccc(NC(=O)NC6CC6)cc5F)c4s3)nc2)CC1` [Compound 76, 2-Methoxyethyl 4-((6-(7-(4-(3-cyclopropylureido)-2-fluorophenoxy)thieno[3,2-b]pyridin-2-yl)pyridin-3-yl)methyl)piperazine-1-carboxylate], in data set [1], the IC50 came out at 8 nM.

On to `CCCC(=O)OCC(=O)N1CCN(Cc2ccc(-c3cc4nccc(Oc5ccc(NC(=O)NC6CC6)cc5F)c4s3)nc2)CC1` [Compound 79, 2-(4-((6-(7-(4-(3-Cyclopropylureido)-2-fluorophenoxy)thieno[3,2-b]pyridin-2-yl)pyridin-3-yl)methyl)piperazin-1-yl)-2-oxoethyl butyrate], for which, in data set [1], the IC50 turned out to be 19 nM.

For the molecule `CC(C)C(=O)OCC(=O)N1CCN(Cc2ccc(-c3cc4nccc(Oc5ccc(NC(=O)NC6CC6)cc5F)c4s3)nc2)CC1` [Compound 80, 2-(4-((6-(7-(4-(3-Cyclopropylureido)-2-fluorophenoxy)thieno[3,2-b]pyridin-2-yl)pyridin-3-yl)methul)piperazin 1-yl)-2-oxoethyl isobutrate], the IC50 in data set [1] was 20 nM.

Consider `O=C(Nc1ccc(Oc2ccnc3cc(-c4ccc(CN5CCN(C(=O)CS)CC5)cn4)sc23)c(F)c1)NC1CC1` [Compound 114, 1-Cyclopropyl-3-(3-fluoro-4-(2-(5-((4-(2-mercaptoacetyl)piperazin-1-yl)methyl)pyridin-2-yl)thieno[3,2-b]pyridin-7-yloxy)phenyl)urea], for which the IC50 in data set [1] came out at 10 nM.

For `C[C@@H]1CN(Cc2ccc(-c3cc4nccc(Oc5ccc(NC(=O)NC6CC6)cc5F)c4s3)nc2)CCN1CCO` [Compound 119, (R)-1-cyclopropyl-3-(3-fluoro-4-(2-(5-((4-(2-hydroxyethyl)-3-methylpiperazin-1-yl)methyl)pyridin-2-yl)thieno[3,2-b]pyridin-7-yloxy)phenyl)urea], the IC50 in data set [1] stood at 8 nM.

For the molecule `O=C(Nc1ccc(Oc2ccnc3cc(-c4ccc(CN5CCN(C(=O)COC(=O)CCCC[C@H]6SC[C@H]7NC(=O)N[C@H]76)CC5)cn4)sc23)c(F)c1)NC1CC1` [Compound 120, 2-(4-((6-(7-(4-(3-Cyclopropylureido)-2-fluorophenoxy)thieno[3,2-b]pyridin-2-yl)pyridin-3-yl)methyl)piperazin-1-yl)-2-oxoethyl 5-((3aR,4R,6aS)-2-oxohexahydro-1H-thieno[3,4-d]imidazol-4-yl)pentanoate], the IC50 in data set [1] worked out at 21 nM.
